Reference: US11021457B2, “Class of isoindolone-imide ring-1,3-dione-2-ene compounds, composition and use thereof” (WIGEN BIOMEDICINE TECHNOLOGY (SHANGHAI) CO., LTD., priority 2017, dated 2021)
pIC50: −log10 of the molar value.

system: SU-DHL6; test: Inhibition of tumor cell proliferation, CellTiter-Glo, SU-DHL6; format: cell-based; details: compound concentration 50 μM, 72 hours
Method in brief: (§1)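 Cells seeded at 2000-10000 per well, treated immediately (suspension) or after adherence (adherent) and cultured at 37° C, 5% CO2. Viability read by CellTiter-Glo at 72 h as blank-corrected survival rate vs control. Scored at 50 μM compound: survival 60-<90% +, >30-60% ++, ≤30% +++.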

| SMILES | Inhibitory activity against proliferation (cell survival rate) SU-DHL6 |
| --- | --- |
| O=C1CCC(N2Cc3c(NC=C4C(=O)CC(c5cc(C(F)(F)F)ccc5F)CC4=O)cccc3C2=O)C(=O)N1 (stereo not drawn) [Compound 140] | +++ (survival rate (%)≤30) |
| O=C1CCC(N2Cc3c(NC=C4C(=O)CC(c5c(C(F)(F)F)ccc(Cl)c5Cl)CC4=O)cccc3C2=O)C(=O)N1 (stereo not drawn) [Compound 141] | +++ (survival rate (%)≤30) |
| O=C1CCC(N2Cc3c(NC=C4C(=O)CC(c5c(C(F)(F)F)ccc(Cl)c5F)CC4=O)cccc3C2=O)C(=O)N1 (stereo not drawn) [Compound 142] | +++ (survival rate (%)≤30) |
| COc1cc(Br)c(C2CC(=O)C(=CNc3cccc4c3CN(C3CCC(=O)NC3=O)C4=O)C(=O)C2)cc1OC (stereo not drawn) [Compound 143] | +++ (survival rate (%)≤30) |
| O=C1CCC(N2Cc3c(NC=C4C(=O)CC(c5cc(C(F)(F)F)ccc5Cl)CC4=O)cccc3C2=O)C(=O)N1 (stereo not drawn) [Compound 144] | +++ (survival rate (%)≤30) |
| O=C1CCC(N2Cc3c(NC=C4C(=O)CC(c5ccc(Cl)cc5F)CC4=O)cccc3C2=O)C(=O)N1 (stereo not drawn) [Compound 145] | +++ (survival rate (%)≤30) |

system: RPMI-8226; test: Inhibition of tumor cell proliferation, CellTiter-Glo, RPMI-8226; format: cell-based; details: compound concentration 50 μM, 72 hours
Method in brief: as §1

| SMILES | Inhibitory activity against proliferation (cell survival rate) RPMI-8226 |
| --- | --- |
| O=C1CCC(N2Cc3c(NC=C4C(=O)CC(c5cc(C(F)(F)F)ccc5F)CC4=O)cccc3C2=O)C(=O)N1 (stereo not drawn) [Compound 140] | +++ (survival rate (%)≤30) |
| O=C1CCC(N2Cc3c(NC=C4C(=O)CC(c5c(C(F)(F)F)ccc(Cl)c5Cl)CC4=O)cccc3C2=O)C(=O)N1 (stereo not drawn) [Compound 141] | ++ (30<survival rate (%)≤60) |
| O=C1CCC(N2Cc3c(NC=C4C(=O)CC(c5c(C(F)(F)F)ccc(Cl)c5F)CC4=O)cccc3C2=O)C(=O)N1 (stereo not drawn) [Compound 142] | +++ (survival rate (%)≤30) |
| COc1cc(Br)c(C2CC(=O)C(=CNc3cccc4c3CN(C3CCC(=O)NC3=O)C4=O)C(=O)C2)cc1OC (stereo not drawn) [Compound 143] | ++ (30<survival rate (%)≤60) |
| O=C1CCC(N2Cc3c(NC=C4C(=O)CC(c5cc(C(F)(F)F)ccc5Cl)CC4=O)cccc3C2=O)C(=O)N1 (stereo not drawn) [Compound 144] | +++ (survival rate (%)≤30) |
| O=C1CCC(N2Cc3c(NC=C4C(=O)CC(c5ccc(Cl)cc5F)CC4=O)cccc3C2=O)C(=O)N1 (stereo not drawn) [Compound 145] | ++ (30<survival rate (%)≤60) |

system: K562; test: Inhibition of tumor cell proliferation, CellTiter-Glo, K562; format: cell-based; details: compound concentration 50 μM, 72 hours
Method in brief: as §1

| SMILES | Inhibitory activity against proliferation (cell survival rate) K562 |
| --- | --- |
| O=C1CCC(N2Cc3c(NC=C4C(=O)CC(c5cc(C(F)(F)F)ccc5F)CC4=O)cccc3C2=O)C(=O)N1 (stereo not drawn) [Compound 140] | +++ (survival rate (%)≤30) |
| O=C1CCC(N2Cc3c(NC=C4C(=O)CC(c5c(C(F)(F)F)ccc(Cl)c5Cl)CC4=O)cccc3C2=O)C(=O)N1 (stereo not drawn) [Compound 141] | ++ (30<survival rate (%)≤60) |
| O=C1CCC(N2Cc3c(NC=C4C(=O)CC(c5c(C(F)(F)F)ccc(Cl)c5F)CC4=O)cccc3C2=O)C(=O)N1 (stereo not drawn) [Compound 142] | +++ (survival rate (%)≤30) |
| COc1cc(Br)c(C2CC(=O)C(=CNc3cccc4c3CN(C3CCC(=O)NC3=O)C4=O)C(=O)C2)cc1OC (stereo not drawn) [Compound 143] | ++ (30<survival rate (%)≤60) |
| O=C1CCC(N2Cc3c(NC=C4C(=O)CC(c5cc(C(F)(F)F)ccc5Cl)CC4=O)cccc3C2=O)C(=O)N1 (stereo not drawn) [Compound 144] | +++ (survival rate (%)≤30) |
| O=C1CCC(N2Cc3c(NC=C4C(=O)CC(c5ccc(Cl)cc5F)CC4=O)cccc3C2=O)C(=O)N1 (stereo not drawn) [Compound 145] | ++ (30<survival rate (%)≤60) |

system: A549; test: Inhibition of tumor cell proliferation, CellTiter-Glo, A549; format: cell-based; details: compound concentration 50 μM, 72 hours
Method in brief: as §1

| SMILES | Inhibitory activity against proliferation (cell survival rate) A549 |
| --- | --- |
| O=C1CCC(N2Cc3c(NC=C4C(=O)CC(c5cc(C(F)(F)F)ccc5F)CC4=O)cccc3C2=O)C(=O)N1 (stereo not drawn) [Compound 140] | +++ (survival rate (%)≤30) |
| O=C1CCC(N2Cc3c(NC=C4C(=O)CC(c5c(C(F)(F)F)ccc(Cl)c5Cl)CC4=O)cccc3C2=O)C(=O)N1 (stereo not drawn) [Compound 141] | +++ (survival rate (%)≤30) |
| O=C1CCC(N2Cc3c(NC=C4C(=O)CC(c5c(C(F)(F)F)ccc(Cl)c5F)CC4=O)cccc3C2=O)C(=O)N1 (stereo not drawn) [Compound 142] | + (60≤survival rate (%)<90) |
| COc1cc(Br)c(C2CC(=O)C(=CNc3cccc4c3CN(C3CCC(=O)NC3=O)C4=O)C(=O)C2)cc1OC (stereo not drawn) [Compound 143] | +++ (survival rate (%)≤30) |
| O=C1CCC(N2Cc3c(NC=C4C(=O)CC(c5cc(C(F)(F)F)ccc5Cl)CC4=O)cccc3C2=O)C(=O)N1 (stereo not drawn) [Compound 144] | + (60≤survival rate (%)<90) |
| O=C1CCC(N2Cc3c(NC=C4C(=O)CC(c5ccc(Cl)cc5F)CC4=O)cccc3C2=O)C(=O)N1 (stereo not drawn) [Compound 145] | +++ (survival rate (%)≤30) |

system: MDA-MB-453; test: Inhibition of tumor cell proliferation, CellTiter-Glo, MDA-MB-453; format: cell-based; details: compound concentration 50 μM, 72 hours
Method in brief: as §1

| SMILES | Inhibitory activity against proliferation (cell survival rate) MDA-MB-453 |
| --- | --- |
| O=C1CCC(N2Cc3c(NC=C4C(=O)CC(c5cc(C(F)(F)F)ccc5F)CC4=O)cccc3C2=O)C(=O)N1 (stereo not drawn) [Compound 140] | ++ (30<survival rate (%)≤60) |
| O=C1CCC(N2Cc3c(NC=C4C(=O)CC(c5c(C(F)(F)F)ccc(Cl)c5Cl)CC4=O)cccc3C2=O)C(=O)N1 (stereo not drawn) [Compound 141] | +++ (survival rate (%)≤30) |
| O=C1CCC(N2Cc3c(NC=C4C(=O)CC(c5c(C(F)(F)F)ccc(Cl)c5F)CC4=O)cccc3C2=O)C(=O)N1 (stereo not drawn) [Compound 142] | +++ (survival rate (%)≤30) |
| COc1cc(Br)c(C2CC(=O)C(=CNc3cccc4c3CN(C3CCC(=O)NC3=O)C4=O)C(=O)C2)cc1OC (stereo not drawn) [Compound 143] | +++ (survival rate (%)≤30) |
| O=C1CCC(N2Cc3c(NC=C4C(=O)CC(c5cc(C(F)(F)F)ccc5Cl)CC4=O)cccc3C2=O)C(=O)N1 (stereo not drawn) [Compound 144] | +++ (survival rate (%)≤30) |
| O=C1CCC(N2Cc3c(NC=C4C(=O)CC(c5ccc(Cl)cc5F)CC4=O)cccc3C2=O)C(=O)N1 (stereo not drawn) [Compound 145] | +++ (survival rate (%)≤30) |

system: BxPC-3; test: Inhibition of tumor cell proliferation, CellTiter-Glo, BxPC-3; format: cell-based; details: compound concentration 50 μM, 72 hours
Method in brief: as §1

| SMILES | Inhibitory activity against proliferation (cell survival rate) BxPC-3 |
| --- | --- |
| O=C1CCC(N2Cc3c(NC=C4C(=O)CC(c5cc(C(F)(F)F)ccc5F)CC4=O)cccc3C2=O)C(=O)N1 (stereo not drawn) [Compound 140] | ++ (30<survival rate (%)≤60) |
| O=C1CCC(N2Cc3c(NC=C4C(=O)CC(c5c(C(F)(F)F)ccc(Cl)c5Cl)CC4=O)cccc3C2=O)C(=O)N1 (stereo not drawn) [Compound 141] | + (60≤survival rate (%)<90) |
| O=C1CCC(N2Cc3c(NC=C4C(=O)CC(c5c(C(F)(F)F)ccc(Cl)c5F)CC4=O)cccc3C2=O)C(=O)N1 (stereo not drawn) [Compound 142] | + (60≤survival rate (%)<90) |
| COc1cc(Br)c(C2CC(=O)C(=CNc3cccc4c3CN(C3CCC(=O)NC3=O)C4=O)C(=O)C2)cc1OC (stereo not drawn) [Compound 143] | + (60≤survival rate (%)<90) |
| O=C1CCC(N2Cc3c(NC=C4C(=O)CC(c5cc(C(F)(F)F)ccc5Cl)CC4=O)cccc3C2=O)C(=O)N1 (stereo not drawn) [Compound 144] | + (60≤survival rate (%)<90) |
| O=C1CCC(N2Cc3c(NC=C4C(=O)CC(c5ccc(Cl)cc5F)CC4=O)cccc3C2=O)C(=O)N1 (stereo not drawn) [Compound 145] | + (60≤survival rate (%)<90) |

biological target: LC3B (Homo sapiens (Human), UniProt Q9GZQ8); test: Fluorescence polarization experiment targeting LC3B (GST-LC3B with FITC-labeled peptide); details: GST-LC3B 180 nM, FITC-labeled peptide 18 nM, 25° C.

| SMILES | pIC50 |
| --- | --- |
| O=C1CCC(N2Cc3c(NC=C4C(=O)CC(c5cc(C(F)(F)F)ccc5F)CC4=O)cccc3C2=O)C(=O)N1 (stereo not drawn) [Compound 140] | > 5.52 |
| O=C1CCC(N2Cc3c(NC=C4C(=O)CC(c5c(C(F)(F)F)ccc(Cl)c5Cl)CC4=O)cccc3C2=O)C(=O)N1 (stereo not drawn) [Compound 141] | > 5.52 |
| O=C1CCC(N2Cc3c(NC=C4C(=O)CC(c5c(C(F)(F)F)ccc(Cl)c5F)CC4=O)cccc3C2=O)C(=O)N1 (stereo not drawn) [Compound 142] | > 5.52 |
| COc1cc(Br)c(C2CC(=O)C(=CNc3cccc4c3CN(C3CCC(=O)NC3=O)C4=O)C(=O)C2)cc1OC (stereo not drawn) [Compound 143] | > 5.52 |
| O=C1CCC(N2Cc3c(NC=C4C(=O)CC(c5cc(C(F)(F)F)ccc5Cl)CC4=O)cccc3C2=O)C(=O)N1 (stereo not drawn) [Compound 144] | > 5.52 |
| O=C1CCC(N2Cc3c(NC=C4C(=O)CC(c5ccc(Cl)cc5F)CC4=O)cccc3C2=O)C(=O)N1 (stereo not drawn) [Compound 145] | > 5.52 |
